Source: patent publication US10111435B2, “Herbicidal compositions containing N-(1,3,4-oxadiazol-2-yl)-aryl carboxylic acid amides” (BAYER CROPSCIENCE AKTIENGESELLSCHAFT, priority 2013, dated 2018)

Columns and labels:
Format in all cases: in vivo
Avena fatua (AVEFA) = assay: greenhouse post-emergence herbicidal efficacy against AVEFA
Method in brief: (§1)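 Post-emergence spray, 300 L/ha, on plants grown from seed in sandy loam (8 cm pots), greenhouse. Visual rating 14 and 21 d post-application vs untreated; 0% = no effect, 100% = complete die-off. Mixture values compared with Colby E^C; positive difference = synergism.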

Setaria viridis (SETVI) = assay: greenhouse post-emergence herbicidal efficacy against SETVI
Method: (§2) All trials whose results are shown were conducted in a greenhouse by the methodology specified below. The effect of the inventive herbicidal compositions was examined on the following harmful plants 14 and 21 days after application:
(§3) Echinochloa crus-galli (ECHCG), Eleusine indica (ELEIN), Setaria viridis (SETVI), Amaranthus retroflexus (AMARE), Chenopodium album (CHEAL), Kochia scoparia (KCHSC), Solanum nigrum (SOLNI), Avena fatua (AVEFA), Bromus sterilis (BROST), Lolium multiflorum (LOLMU), Phalaris minor (PHAMI), Poa annua (POAAN), Galium aparine (GALAP), Matricaria inodora (MATIN) and Polygonum convolvulus (POLCO).
(§4) The harmful plant seeds were sown in pots (diameter 8 cm) with sandy loam soil and germinated under optimal conditions. The inventive herbicidal compositions or the active ingredients alone were applied post-emergence to the planted pots with a spray volume of 300 L/ha. The trial was conducted in a greenhouse under optimum growth conditions. The herbicidal effects were assessed visually by comparison of untreated and treated plants. The percentages mean: 0%=no effects, 100%=the plants die off completely). The percentages are used to calculate interactions between individual treatments and combination treatments according to S. R. Colby, Weeds 15, pages 20 to 22 (1967).
(§5) The abbreviations mean: • a.i.=active ingredient • E^C=expected value according to Colby (E^C=A+B−A×B/100) • Diff: =difference (%) of measured value from expected value (%) (measured value minus expected value)
(§6) Assessment: • measured value E is greater than E^C:->synergism (+ diff.) • measured value E equals E^C:->additive effect • measured value E is smaller than E^C:->antagonism(− diff.)

Bromus sterilis (BROST) = assay: greenhouse post-emergence herbicidal efficacy against BROST
Method in brief: as §1

[1] = system: Polygonum convolvulus (POLCO); assay: greenhouse post-emergence herbicidal efficacy against POLCO
Method in brief: as §1

DIGSA = assay: greenhouse post-emergence herbicidal efficacy against DIGSA
Method: as §2, §4, §5, §6

[2] = system: Lolium multiflorum (LOLMU); assay: greenhouse post-emergence herbicidal efficacy against LOLMU
Method in brief: as §1

[3] = system: Echinochloa crus-galli (ECHCG); assay: greenhouse post-emergence herbicidal efficacy against ECHCG
Method: as §2, §3, §4, §5, §6

[4] = system: Matricaria inodora (MATIN); assay: greenhouse post-emergence herbicidal efficacy against MATIN
Method in brief: as §1

Eleusine indica (ELEIN) = assay: greenhouse post-emergence herbicidal efficacy against ELEIN
Method: as §2, §3, §4, §5, §6

[5] = system: Amaranthus retroflexus (AMARE); assay: greenhouse post-emergence herbicidal efficacy against AMARE
Method: as §2, §3, §4, §5, §6

Solanum nigrum (SOLNI) = assay: greenhouse post-emergence herbicidal efficacy against SOLNI
Method: as §2, §3, §4, §5, §6

Phalaris minor (PHAMI) = assay: greenhouse post-emergence herbicidal efficacy against PHAMI
Method in brief: as §1

Galium aparine (GALAP) = assay: greenhouse post-emergence herbicidal efficacy against GALAP
Method in brief: as §1

Poa annua (POAAN) = assay: greenhouse post-emergence herbicidal efficacy against POAAN
Method in brief: as §1

[6] = 14 days after application, 2.5 g of a.i./ha
[7] = 14 days after application, 10 g of a.i./ha
[8] = 21 days after application, g of a.i./ha: A1-36 2.5, flurtamone 80
[9] = 21 days after application, g of a.i./ha: A1-36 2.5, flurtamone 320
[10] = 21 days after application, g of a.i./ha: A1-36 10, flurtamone 80
[11] = 21 days after application, g of a.i./ha: A1-36 10, flurtamone 320
[12] = 21 days after application, 2 g of a.i./ha
[13] = 14 days after application, 0.5 g of a.i./ha
[14] = 21 days after application, 0.5 g of a.i./ha
[15] = 14 days after application, 2 g of a.i./ha
[16] = 14 days after application, g of a.i./ha: A1-60 2.5, isoproturon 400
[17] = 14 days after application, g of a.i./ha: A1-60 10, isoproturon 400
[18] = 14 days after application, g of a.i./ha: A1-60 10, isoproturon 1600
[19] = 21 days after application, g of a.i./ha: A1-60 2.5, isoproturon 400
[20] = 21 days after application, g of a.i./ha: A1-60 10, isoproturon 400
[21] = 21 days after application, g of a.i./ha: A1-60 10, isoproturon 1600
[22] = 14 days after application, 1 g of a.i./ha
[23] = 14 days after application, 4 g of a.i./ha
[24] = 21 days after application, 4 g of a.i./ha
[25] = 21 days after application, 1 g of a.i./ha
[26] = 14 days after application, g of a.i./ha: A1-60 2.5, isoproturon 1600

Cc1nnc(NC(=O)c2ccc(C(F)(F)F)c(S(C)(=O)=O)c2Cl)o1 [A1-36]
Efficacy (Avena fatua (AVEFA); [6]): 0%
Efficacy (Avena fatua (AVEFA); [7]): 15%
Efficacy (Avena fatua (AVEFA); [8]): 10%
Efficacy (Avena fatua (AVEFA); [9]): 10%
Efficacy (Avena fatua (AVEFA); [10]): 15%
Efficacy (Avena fatua (AVEFA); [11]): 15%
Efficacy (Setaria viridis (SETVI); [12]): 65%
Efficacy (Bromus sterilis (BROST); [6]): 0%
Efficacy (Bromus sterilis (BROST); [8]): 5%
Efficacy (Bromus sterilis (BROST); [9]): 5%
Efficacy [1, 6]: 0%
Efficacy [1, 10]: 3%
Efficacy [1, 11]: 3%
Efficacy (DIGSA; [13]): 10%
Efficacy (DIGSA; [14]): 10%
Efficacy [2, 7]: 3%
Efficacy [2, 10]: 0%
Efficacy [3, 13]: 10%
Efficacy [3, 15]: 40%
Efficacy [3, 14]: 0%
Efficacy [3, 12]: 20%
Efficacy [4, 6]: 15%
Efficacy [4, 7]: 40%
Efficacy [4, 8]: 0%
Efficacy [4, 9]: 0%
Efficacy [4, 10]: 15%
Efficacy [4, 11]: 15%
Efficacy (Eleusine indica (ELEIN); [15]): 50%
Efficacy (Eleusine indica (ELEIN); [12]): 30%
Efficacy [5, 14]: 20%
Efficacy [5, 12]: 70%
Efficacy (Solanum nigrum (SOLNI); [12]): 50%
Efficacy (Phalaris minor (PHAMI); [6]): 0%
Efficacy (Phalaris minor (PHAMI); [7]): 30%
Efficacy (Phalaris minor (PHAMI); [10]): 20%
Efficacy (Galium aparine (GALAP); [6]): 5%
Efficacy (Galium aparine (GALAP); [7]): 25%
Efficacy (Galium aparine (GALAP); [8]): 0%
Efficacy (Galium aparine (GALAP); [10]): 25%
Efficacy (Galium aparine (GALAP); [11]): 25%

Cc1nnc(NC(=O)c2ccc(C(F)(F)F)c([S+](C)[O-])c2C)o1 (centres unmarked) [A1-60]
Efficacy (Avena fatua (AVEFA); [16]): 0%
Efficacy (Avena fatua (AVEFA); [17]): 0%
Efficacy (Avena fatua (AVEFA); [18]): 0%
Efficacy (Avena fatua (AVEFA); [19]): 0%
Efficacy (Avena fatua (AVEFA); [20]): 5%
Efficacy (Avena fatua (AVEFA); [21]): 5%
Efficacy (Setaria viridis (SETVI); [22]): 70%
Efficacy (Setaria viridis (SETVI); [23]): 85%
Efficacy (Setaria viridis (SETVI); [24]): 70%
Efficacy (Setaria viridis (SETVI); [25]): 50%
Efficacy (Poa annua (POAAN); [26]): 0%
Efficacy (Poa annua (POAAN); [17]): 10%
Efficacy (Poa annua (POAAN); [18]): 10%
Efficacy (Poa annua (POAAN); [20]): 20%
Efficacy (Bromus sterilis (BROST); [16]): 0%
Efficacy (Bromus sterilis (BROST); [26]): 0%
Efficacy (Bromus sterilis (BROST); [17]): 15%
Efficacy (Bromus sterilis (BROST); [18]): 15%
Efficacy (Bromus sterilis (BROST); [20]): 5%
Efficacy (Bromus sterilis (BROST); [21]): 5%
Efficacy (DIGSA; [23]): 93%
Efficacy (DIGSA; [24]): 70%
Efficacy [2, 16]: 0%
Efficacy [2, 26]: 0%
Efficacy [2, 17]: 0%
Efficacy [2, 18]: 0%
Efficacy [2, 20]: 3%
Efficacy [2, 21]: 3%
Efficacy [3, 22]: 65%
Efficacy [3, 23]: 90%
Efficacy [3, 24]: 75%
Efficacy [3, 25]: 40%
Efficacy [4, 19]: 0%
Efficacy [4, 20]: 40%
Efficacy (Eleusine indica (ELEIN); [22]): 70%
Efficacy (Eleusine indica (ELEIN); [23]): 90%
Efficacy (Eleusine indica (ELEIN); [24]): 75%
Efficacy (Eleusine indica (ELEIN); [25]): 40%
Efficacy [5, 23]: 70%
Efficacy [5, 24]: 60%
Efficacy [5, 25]: 20%
Efficacy (Solanum nigrum (SOLNI); [22]): 65%
Efficacy (Solanum nigrum (SOLNI); [23]): 65%
Efficacy (Solanum nigrum (SOLNI); [24]): 30%
Efficacy (Solanum nigrum (SOLNI); [25]): 20%
Efficacy (Phalaris minor (PHAMI); [16]): 10%
Efficacy (Phalaris minor (PHAMI); [17]): 25%
Efficacy (Phalaris minor (PHAMI); [18]): 25%
Efficacy (Phalaris minor (PHAMI); [19]): 0%
Efficacy (Phalaris minor (PHAMI); [20]): 20%
Efficacy (Galium aparine (GALAP); [16]): 25%
Efficacy (Galium aparine (GALAP); [26]): 25%
Efficacy (Galium aparine (GALAP); [17]): 30%
Efficacy (Galium aparine (GALAP); [18]): 30%
Efficacy (Galium aparine (GALAP); [19]): 0%
Efficacy (Galium aparine (GALAP); 21 days after application, g of a.i./ha: A1-60 2.5, isoproturon 1600): 0%
Efficacy (Galium aparine (GALAP); [20]): 0%
Efficacy (Galium aparine (GALAP); [21]): 0%
